# Data published in US20210254056A1, “IDENTIFICATION AND TARGETED MODULATION OF GENE SIGNALING NETWORKS” (CAMP4 THERAPEUTICS CORPORATION, priority 2017, published 2021).
# Like-named read-outs stand apart in the source and are kept apart here.
# What was measured:
# [1] = system: Early erythroblast progenitor cells derived from cord blood; assay: Reversion of immortality after doxycycline withdrawal (qRT-PCR, cell size); format: cell-based, human
# hepatocytes [2] = assay: RNA-seq of hepatocytes stimulated with the compounds of Table 68
# hepatocytes [3] = assay: qRT-PCR validation of the Example 12 RNA-seq results;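 also: Compound-treated versus DMSO control, target Ct normalized to GAPDH or β-actin reference (ΔΔCt method), positive values mean higher expression than DMSO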
# [4] = sample D2-Dox− (2 days after doxycycline withdrawn)
# [5] = sample D3-Dox− (3 days after doxycycline withdrawn)
# [6] = sample D4-Dox− (4 days after doxycycline withdrawn)
# [7] = sample D5-Dox− (5 days after doxycycline withdrawn)
# [8] = hepatocytes stimulated with the compound, RNA-seq, significance: FPKM≥1, q-value≤0.05, log 2 fold change≥1.5
# [9] = sample D2-dox+ (day 2, on doxycycline; reference)
# [10] = sample D6-dox− (6 days after doxycycline withdrawn)
molecule,measurement,setting,value
C[C@H]1c2cccc(O)c2C(=O)C2=C(O)[C@]3(O)C(=O)C(C(N)=O)=C(O)[C@@H](N(C)C)[C@@H]3[C@@H](O)[C@@H]21 [Dox],RQ of ALAS2,[1]; [4],2.98
same,RQ of BCLXL,[1]; [4],0.29
same,RQ of HBB,[1]; [4],7.81
same,RQ of MYC,[1]; [4],0.04
same,RQ of RPS19,[1]; [4],0.28
same,RQ of p21,[1]; [4],2.31
same,RQ of p53,[1]; [4],0.40
same,RQ of ALAS2,[1]; [5],1.44
same,RQ of BCLXL,[1]; [5],0.11
same,RQ of HBB,[1]; [5],5.57
same,RQ of MYC,[1]; [5],0.03
same,RQ of RPS19,[1]; [5],0.21
same,RQ of p21,[1]; [5],1.05
same,RQ of p53,[1]; [5],0.21
same,RQ of ALAS2,[1]; [6],0.94
same,RQ of BCLXL,[1]; [6],0.07
same,RQ of HBB,[1]; [6],4.89
same,RQ of MYC,[1]; [6],0.06
same,RQ of RPS19,[1]; [6],0.28
same,RQ of p21,[1]; [6],2.03
same,RQ of p53,[1]; [6],0.22
same,RQ of ALAS2,[1]; [7],0.40
same,RQ of BCLXL,[1]; [7],0.04
same,RQ of HBB,[1]; [7],2.13
same,RQ of MYC,[1]; [7],0.06
same,RQ of RPS19,[1]; [7],0.27
same,RQ of p21,[1]; [7],1.61
same,RQ of p53,[1]; [7],0.20
"C[C@]12C=CC(=O)C=C1CC[C@@H]1[C@@H]2C(=O)C[C@@]2(C)[C@H]1CC[C@]2(O)C(=O)CO [MT-861, Prednisone]","Cuffdiff log2fc, AMACR","hepatocytes [2]; log 2 fold change in AMACR gene expression, hepatocytes, RNA-seq, Cuffdiff",−1.4
same,"DESeq log2fc, AMACR","hepatocytes [2]; log 2 fold change in AMACR gene expression, hepatocytes, RNA-seq, DESeq",−1.24
same,"Cuffdiff log2fc, ARG1","hepatocytes [2]; log 2 fold change in ARG1 gene expression, hepatocytes, RNA-seq, Cuffdiff",1.48
same,"DESeq log2fc, ARG1","hepatocytes [2]; log 2 fold change in ARG1 gene expression, hepatocytes, RNA-seq, DESeq",1.59
same,"Cuffdiff log2fc, CA2","hepatocytes [2]; log 2 fold change in CA2 gene expression, hepatocytes, RNA-seq, Cuffdiff",−1.05
same,"DESeq log2fc, CA2","hepatocytes [2]; log 2 fold change in CA2 gene expression, hepatocytes, RNA-seq, DESeq",−0.95
same,"Cuffdiff log2fc, CIDEC","hepatocytes [2]; log 2 fold change in CIDEC gene expression, hepatocytes, RNA-seq, Cuffdiff",1.02
same,"DESeq log2fc, CIDEC","hepatocytes [2]; log 2 fold change in CIDEC gene expression, hepatocytes, RNA-seq, DESeq",1.19
same,"Cuffdiff log2fc, CPS1","hepatocytes [2]; log 2 fold change in CPS1 gene expression, hepatocytes, RNA-seq, Cuffdiff",2.14
same,"DESeq log2fc, CPS1","hepatocytes [2]; log 2 fold change in CPS1 gene expression, hepatocytes, RNA-seq, DESeq",2.17
same,"Cuffdiff log2fc, ENO3","hepatocytes [2]; log 2 fold change in ENO3 gene expression, hepatocytes, RNA-seq, Cuffdiff",−1.24
same,"DESeq log2fc, ENO3","hepatocytes [2]; log 2 fold change in ENO3 gene expression, hepatocytes, RNA-seq, DESeq",−1.03
same,"Cuffdiff log2fc, G6PC","hepatocytes [2]; log 2 fold change in G6PC gene expression, hepatocytes, RNA-seq, Cuffdiff",1.02
same,"DESeq log2fc, G6PC","hepatocytes [2]; log 2 fold change in G6PC gene expression, hepatocytes, RNA-seq, DESeq",1.03
same,"Cuffdiff log2fc, GYS2","hepatocytes [2]; log 2 fold change in GYS2 gene expression, hepatocytes, RNA-seq, Cuffdiff",2.21
same,"DESeq log2fc, GYS2","hepatocytes [2]; log 2 fold change in GYS2 gene expression, hepatocytes, RNA-seq, DESeq",2.49
same,"Cuffdiff log2fc, HGD","hepatocytes [2]; log 2 fold change in HGD gene expression, hepatocytes, RNA-seq, Cuffdiff",1.23
same,"DESeq log2fc, HGD","hepatocytes [2]; log 2 fold change in HGD gene expression, hepatocytes, RNA-seq, DESeq",1.31
same,"Cuffdiff log2fc, HOGA1","hepatocytes [2]; log 2 fold change in HOGA1 gene expression, hepatocytes, RNA-seq, Cuffdiff",1
same,"DESeq log2fc, HOGA1","hepatocytes [2]; log 2 fold change in HOGA1 gene expression, hepatocytes, RNA-seq, DESeq",1.04
same,"Cuffdiff log2fc, HPGD","hepatocytes [2]; log 2 fold change in HPGD gene expression, hepatocytes, RNA-seq, Cuffdiff",2.07
same,"DESeq log2fc, HPGD","hepatocytes [2]; log 2 fold change in HPGD gene expression, hepatocytes, RNA-seq, DESeq",2.29
same,"Cuffdiff log2fc, NCF2","hepatocytes [2]; log 2 fold change in NCF2 gene expression, hepatocytes, RNA-seq, Cuffdiff",−1.71
same,"DESeq log2fc, NCF2","hepatocytes [2]; log 2 fold change in NCF2 gene expression, hepatocytes, RNA-seq, DESeq",−1.6
same,"Cuffdiff log2fc, RMRP","hepatocytes [2]; log 2 fold change in RMRP gene expression, hepatocytes, RNA-seq, Cuffdiff",−1.43
same,"DESeq log2fc, RMRP","hepatocytes [2]; log 2 fold change in RMRP gene expression, hepatocytes, RNA-seq, DESeq",−0.78
same,"Cuffdiff log2fc, SLC37A4","hepatocytes [2]; log 2 fold change in SLC37A4 gene expression, hepatocytes, RNA-seq, Cuffdiff",1.16
same,"DESeq log2fc, SLC37A4","hepatocytes [2]; log 2 fold change in SLC37A4 gene expression, hepatocytes, RNA-seq, DESeq",1.18
same,"Cuffdiff log2fc, TAT","hepatocytes [2]; log 2 fold change in TAT gene expression, hepatocytes, RNA-seq, Cuffdiff",2.37
same,"DESeq log2fc, TAT","hepatocytes [2]; log 2 fold change in TAT gene expression, hepatocytes, RNA-seq, DESeq",2.48
same,"Cuffdiff log2fc, TDO2","hepatocytes [2]; log 2 fold change in TDO2 gene expression, hepatocytes, RNA-seq, Cuffdiff",1.05
same,"DESeq log2fc, TDO2","hepatocytes [2]; log 2 fold change in TDO2 gene expression, hepatocytes, RNA-seq, DESeq",1.21
same,"qRT-PCR log2fc, AMACR",hepatocytes [3]; log 2 fold change in AMACR gene expression,−0.35
same,"qRT-PCR log2fc, ARG1",hepatocytes [3]; log 2 fold change in ARG1 gene expression,1.53
same,"qRT-PCR log2fc, CA2",hepatocytes [3]; log 2 fold change in CA2 gene expression,−0.1
same,"qRT-PCR log2fc, CIDEC",hepatocytes [3]; log 2 fold change in CIDEC gene expression,1.1
same,"qRT-PCR log2fc, CPS1",hepatocytes [3]; log 2 fold change in CPS1 gene expression,0.61
same,"qRT-PCR log2fc, ENO3",hepatocytes [3]; log 2 fold change in ENO3 gene expression,−0.03
same,"qRT-PCR log2fc, G6PC",hepatocytes [3]; log 2 fold change in G6PC gene expression,0.76
same,"qRT-PCR log2fc, GYS2",hepatocytes [3]; log 2 fold change in GYS2 gene expression,0.71
same,"qRT-PCR log2fc, HGD",hepatocytes [3]; log 2 fold change in HGD gene expression,0.5
same,"qRT-PCR log2fc, HOGA1",hepatocytes [3]; log 2 fold change in HOGA1 gene expression,1.47
same,"qRT-PCR log2fc, HPGD",hepatocytes [3]; log 2 fold change in HPGD gene expression,0.36
same,"qRT-PCR log2fc, NCF2",hepatocytes [3]; log 2 fold change in NCF2 gene expression,−0.4
same,"qRT-PCR log2fc, RMRP",hepatocytes [3]; log 2 fold change in RMRP gene expression,−0.33
same,"qRT-PCR log2fc, SLC37A4",hepatocytes [3]; log 2 fold change in SLC37A4 gene expression,0.99
same,"qRT-PCR log2fc, TAT",hepatocytes [3]; log 2 fold change in TAT gene expression,3.26
same,"qRT-PCR log2fc, TDO2",hepatocytes [3]; log 2 fold change in TDO2 gene expression,1.41
CNC(=O)c1cc(Oc2ccc(NC(=O)Nc3ccc(Cl)c(C(F)(F)F)c3)c(F)c2)ccn1 [Regorafenib],# of genes having significantly altered expression,hepatocytes [2]; [8],10
Cc1c(C(=O)NN2CCCCC2)nn(-c2ccc(Cl)cc2Cl)c1-c1ccc(Cl)cc1 [Rimonabant],# of genes having significantly altered expression,hepatocytes [2]; [8],1392
O=C1NC(=O)/C(=C/c2cccc(C(F)(F)F)c2)S1 [SMI-4a],# of genes having significantly altered expression,hepatocytes [2],1436
Oc1c2ccccc2c2c3c(cccc13)N=N2 [SP600125],# of genes having significantly altered expression,hepatocytes [2]; [8],193
C[C@@H]1CC(=O)c2c(ccc3c2C(=O)c2cccc(O)c2C3=O)C1 [STA-21],# of genes having significantly altered expression,hepatocytes [2]; [8],6
COc1ccc(C(=O)Nc2sc3c(c2C(N)=O)CCCC3)cc1OC [TCS 359],# of genes having significantly altered expression,hepatocytes [2],63
Cc1cc(C(C)Nc2ccccc2)c2nc(N3CCOCC3)cc(=O)n2c1 (centres unmarked) [TGX-221],# of genes having significantly altered expression,hepatocytes [2],1
O=C1CCC(N2C(=O)c3ccccc3C2=O)C(=O)N1 (centres unmarked) [Thalidomide],# of genes having significantly altered expression,hepatocytes [2]; [8],3092
COc1cccc(-c2cc(NCc3ccc4c(c3)OCO4)nc(N)n2)c1 [Wnt agonist 1],# of genes having significantly altered expression,hepatocytes [2],138
C[C@H]1c2cccc(O)c2C(=O)C2=C(O)[C@]3(O)C(=O)C(C(N)=O)=C(O)[C@@H](N(C)C)[C@@H]3[C@@H](O)[C@@H]21 [dox],RQ of ALAS2,[1]; [9],1.00
same,RQ of BCLXL,[1]; [9],1.00
same,RQ of HBB,[1]; [9],1.00
same,RQ of MYC,[1]; [9],1.00
same,RQ of p21,[1]; [9],1.00
same,RQ of p53,[1]; [9],1.00
same,RQ (relative quantification of expression) of RPS19,"[1]; sample D2-dox+ (day 2, on doxycycline; reference), B-ACTIN control",1.00
same,RQ of ALAS2,[1]; [10],0.17
same,RQ of BCLXL,[1]; [10],0.03
same,RQ of HBB,[1]; [10],0.57
same,RQ of MYC,[1]; [10],0.03
same,RQ of RPS19,[1]; [10],0.21
same,RQ of p21,[1]; [10],1.14
same,RQ of p53,[1]; [10],0.16
Activin,# of genes having significantly altered expression,hepatocytes [2]; [8],798
Pifithrin-μ,# of genes having significantly altered expression,hepatocytes [2],5377
Varenicline tartrate,# of genes having significantly altered expression,hepatocytes [2],7
"Anti-mullerian hormone (protein, UniProt P03971 452-560, looked up) Muellerian-inhibiting factor: SAGATAADGPCALRELSVDLRAERSVLIPETYQANNCQGVCGWPQSDRNPRYGNHVVLLLKMQVRGAALARPPCCVPTAYAGKLLISLSEERISAHHVPNMVATECGCR",# of genes having significantly altered expression,hepatocytes [2]; [8],912
"Wnt3a (protein, UniProt P56704 19-352, looked up) Protein Wnt-3a: SYPIWWSLAVGPQYSSLGSQPILCASIPGLVPKQLRFCRNYVEIMPSVAEGIKIGIQECQHQFRGRRWNCTTVHDSLAIFGPVLDKATRESAFVHAIASAGVAFAVTRSCAEGTAAICGCSSRHQGSPGKGWKWGGCSEDIEFGGMVSREFADARENRPDARSAMNRHNNEAGRQAIASHMHLKCKCHGLSGSCEVKTCWWSQPDFRAIGDFLKDKYDSASEMVVEKHRESRGWVETLRPRYTYFKVPTERDLVYYEASPNFCEPNPETGSFGTRDRTCNVSSHGIDGCDLLCCGRGHNARAERRREKCRCVFHWCCYVSCQECTRVYDVHTCK",# of genes having significantly altered expression,hepatocytes [2]; [8],1142
"Nodal (protein, UniProt Q96S42 238-347, looked up) Nodal homolog: HHLPDRSQLCRKVKFQVDFNLIGWGSWIIYPKQYNAYRCEGECPNPVGEEFHPTNHAYIQSLLKRYQPHRVPSTCCAPVKTKPLSMLYVDNGRVLLDHHKDMIVEECGCL",# of genes having significantly altered expression,hepatocytes [2]; [8],863
"GDF10 (BMP3b) (protein, UniProt P55107 369-478, looked up) Growth/differentiation factor …: QWDEPRVCSRRYLKVDFADIGWNEWIISPKSFDAYYCAGACEFPMPKIVRPSNHATIQSIVRAVGIIPGIPEPCCVPDKMNSLGVLFLDENRNVVLKVYPNMSVDTCACR",# of genes having significantly altered expression,hepatocytes [2]; [8],855
"BMP4 (protein, UniProt P12644 293-408, looked up) Bone morphogenetic protein 4: SPKHHSQRARKKNKNCRRHSLYVDFSDVGWNDWIVAPPGYQAFYCHGDCPFPLADHLNSTNHAIVQTLVNSVNSSIPKACCVPTELSAISMLYLDEYDKVVLKNYQEMVVEGCGCR",# of genes having significantly altered expression,hepatocytes [2]; [8],2218
